From BindingDB's records for doi:10.1007/bf00168557 (Boehringer Ingelheim Italia, 1995)
pKi: −log10 of the molar value. Several values for one entry are separate records, joined by “and”; a condition that tells them apart may be missing. Equal values may be shown once.

Columns and labels:
[1] = biological target: 5-hydroxytryptamine receptor 1D (Rattus norvegicus, UniProt P28565)
[2] = biological target: 5-hydroxytryptamine receptor 4 (Rattus norvegicus, UniProt Q62758)
[3] = biological target: T1, 5-hydroxytryptamine receptor 3A (Rattus norvegicus, UniProt P35563)
T1 sequence (P35563 whole entry): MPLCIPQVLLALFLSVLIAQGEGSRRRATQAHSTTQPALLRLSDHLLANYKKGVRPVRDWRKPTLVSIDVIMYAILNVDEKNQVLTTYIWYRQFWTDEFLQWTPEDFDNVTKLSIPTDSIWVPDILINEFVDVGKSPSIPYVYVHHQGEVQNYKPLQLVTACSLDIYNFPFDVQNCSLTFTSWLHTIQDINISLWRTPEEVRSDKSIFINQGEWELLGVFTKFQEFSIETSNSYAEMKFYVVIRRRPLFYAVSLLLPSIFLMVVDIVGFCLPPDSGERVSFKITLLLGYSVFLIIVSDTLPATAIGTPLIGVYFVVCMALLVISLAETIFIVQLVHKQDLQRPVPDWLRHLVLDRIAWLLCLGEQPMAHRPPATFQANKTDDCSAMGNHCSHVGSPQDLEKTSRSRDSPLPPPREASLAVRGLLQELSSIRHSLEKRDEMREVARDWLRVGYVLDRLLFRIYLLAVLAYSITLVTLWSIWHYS

[4] = biological target: 5-hydroxytryptamine receptor 1B (Rattus norvegicus, UniProt P28564)
Chain of 5-hydroxytryptamine receptor 1B (P28564 whole entry): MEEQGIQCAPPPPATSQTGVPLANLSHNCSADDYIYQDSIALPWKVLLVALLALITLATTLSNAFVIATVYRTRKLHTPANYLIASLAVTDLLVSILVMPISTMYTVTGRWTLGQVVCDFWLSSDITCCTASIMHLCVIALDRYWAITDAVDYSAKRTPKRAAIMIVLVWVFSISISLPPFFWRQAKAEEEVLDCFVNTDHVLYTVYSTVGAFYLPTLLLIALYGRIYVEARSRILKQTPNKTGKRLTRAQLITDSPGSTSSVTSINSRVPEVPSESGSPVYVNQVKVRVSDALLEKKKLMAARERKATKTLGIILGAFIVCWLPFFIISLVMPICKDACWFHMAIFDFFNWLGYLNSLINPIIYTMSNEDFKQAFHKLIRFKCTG

[5] = biological target: T2, 5-hydroxytryptamine receptor 2C (Rattus norvegicus, UniProt P08909)
T2 sequence (P08909 whole entry): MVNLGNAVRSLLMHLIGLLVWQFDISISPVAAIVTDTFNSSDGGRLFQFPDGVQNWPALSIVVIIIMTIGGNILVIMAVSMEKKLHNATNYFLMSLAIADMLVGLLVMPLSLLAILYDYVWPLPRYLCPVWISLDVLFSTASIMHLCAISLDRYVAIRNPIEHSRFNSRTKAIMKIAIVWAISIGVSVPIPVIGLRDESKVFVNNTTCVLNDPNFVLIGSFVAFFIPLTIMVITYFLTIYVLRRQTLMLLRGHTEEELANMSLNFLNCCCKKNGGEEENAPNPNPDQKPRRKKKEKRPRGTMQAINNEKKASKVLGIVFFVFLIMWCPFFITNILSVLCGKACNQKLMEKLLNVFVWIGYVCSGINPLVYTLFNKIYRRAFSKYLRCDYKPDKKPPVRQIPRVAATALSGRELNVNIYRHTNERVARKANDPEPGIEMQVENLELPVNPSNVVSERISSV

[6] = biological target: T3, 5-hydroxytryptamine receptor 1A (Rattus norvegicus, UniProt P19327)
T3 sequence (P19327 whole entry): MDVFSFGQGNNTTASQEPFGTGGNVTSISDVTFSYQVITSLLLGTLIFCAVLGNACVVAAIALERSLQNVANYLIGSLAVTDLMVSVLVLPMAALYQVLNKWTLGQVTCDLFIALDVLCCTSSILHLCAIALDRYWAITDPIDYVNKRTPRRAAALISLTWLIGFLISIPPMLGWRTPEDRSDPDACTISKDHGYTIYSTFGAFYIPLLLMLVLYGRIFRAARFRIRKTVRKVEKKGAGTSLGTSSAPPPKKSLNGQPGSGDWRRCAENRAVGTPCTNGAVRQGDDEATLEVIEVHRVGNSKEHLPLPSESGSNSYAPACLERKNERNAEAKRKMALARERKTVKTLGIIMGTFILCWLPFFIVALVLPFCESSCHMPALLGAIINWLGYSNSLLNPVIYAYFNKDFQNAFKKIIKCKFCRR

[7] = biological target: T4, Alpha-1A adrenergic receptor (Rattus norvegicus, UniProt P43140)
T4 sequence (P43140 whole entry): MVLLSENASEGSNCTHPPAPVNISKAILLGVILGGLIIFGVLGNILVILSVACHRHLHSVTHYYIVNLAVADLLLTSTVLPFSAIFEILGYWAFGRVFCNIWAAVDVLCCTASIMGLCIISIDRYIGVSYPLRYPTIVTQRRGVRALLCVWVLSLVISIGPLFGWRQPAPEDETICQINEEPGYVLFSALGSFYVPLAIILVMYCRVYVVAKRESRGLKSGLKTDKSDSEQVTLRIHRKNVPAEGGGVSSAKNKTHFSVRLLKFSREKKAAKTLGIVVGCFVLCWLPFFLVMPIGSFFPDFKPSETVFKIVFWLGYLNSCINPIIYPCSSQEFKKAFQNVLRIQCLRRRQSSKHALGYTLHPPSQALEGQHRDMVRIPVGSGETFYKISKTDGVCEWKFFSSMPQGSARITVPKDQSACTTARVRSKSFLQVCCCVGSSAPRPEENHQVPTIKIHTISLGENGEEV

Chain of 5-hydroxytryptamine receptor 4 (Q62758 whole entry): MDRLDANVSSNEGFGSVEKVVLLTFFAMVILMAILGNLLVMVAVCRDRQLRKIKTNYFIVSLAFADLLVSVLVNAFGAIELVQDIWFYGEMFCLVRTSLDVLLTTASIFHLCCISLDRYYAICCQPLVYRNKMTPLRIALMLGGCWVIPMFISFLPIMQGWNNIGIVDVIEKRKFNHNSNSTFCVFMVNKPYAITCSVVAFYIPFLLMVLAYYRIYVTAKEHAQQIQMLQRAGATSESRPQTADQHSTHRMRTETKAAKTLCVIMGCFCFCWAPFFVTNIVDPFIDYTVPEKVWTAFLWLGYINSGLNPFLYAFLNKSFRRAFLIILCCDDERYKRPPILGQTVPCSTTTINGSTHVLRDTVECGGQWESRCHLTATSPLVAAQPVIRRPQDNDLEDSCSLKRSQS
Chain of 5-hydroxytryptamine receptor 1D (P28565 whole entry): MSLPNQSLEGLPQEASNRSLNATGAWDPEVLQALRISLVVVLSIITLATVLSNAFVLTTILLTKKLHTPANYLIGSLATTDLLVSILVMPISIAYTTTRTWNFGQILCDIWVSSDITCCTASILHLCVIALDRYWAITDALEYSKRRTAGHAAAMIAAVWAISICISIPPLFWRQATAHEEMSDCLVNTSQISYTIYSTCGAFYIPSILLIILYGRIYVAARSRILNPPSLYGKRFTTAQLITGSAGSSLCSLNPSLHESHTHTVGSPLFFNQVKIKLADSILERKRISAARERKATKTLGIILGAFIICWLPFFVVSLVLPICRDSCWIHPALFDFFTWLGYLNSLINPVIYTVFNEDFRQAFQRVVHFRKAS

Row | Compound | pKi [1] | pKi [2] | pKi [3] | other results
1 | O=C1CC2(CCCC2)CC(=O)N1CCCCN1CCN(c2ncccn2)CC1 [BUSPAR] | < 5.00 | < 5.00 | < 5.00 | –
2 | CCCN(CCC)C1CCc2cccc(O)c2C1 (centres undefined) | – | < 5.00 | < 5.00 | –
3 | O=c1[nH]c2ccccc2n1CCN1CCN(c2ccc(C(F)(F)F)cc2)CC1 [CAS_127941] | 5.60 | < 5.00 | < 5.00 | pKi [4]: 5.68; pKi [5]: 5.40; pKi [6]: 7.32 and 7.72
4 | CN1C2CCC1CC(OC(=O)c1cc(Cl)cc(Cl)c1)C2 (centres undefined) [MDL 72222] | – | – | 9.10 | –
5 | CCn1c(=O)n(C(=O)NC2CC3CCC(C2)N3C)c2ccccc21 (centres undefined) [BIMU 1] | – | 9.72 | – | –
6 | COc1cccc(OC)c1OCCNCC1Oc2ccccc2OC1c1ccccc1 (centres undefined) [NSC_185453] | – | – | – | pKi [7]: 9.52
